The test system of the experiment is Hartley-type male guinea pigs. Briefly: Guinea Pig Homogeneous Skin Passive Anaphylaxis Assay (PCA reaction). The format is in vivo, guinea pig (Hartley-type). The following applies: 10 mg/kg oral, 48 h after sensitization; for inhibition in vivo at 10 mg/kg: Cavia porcellus, read-out: Allergic reaction inhibitory index (%). Here is the method:
In order to confirm the anti-allergic action of the compounds according to the present invention, as an anti-allergic action confirmation assay, the widely used Guinea Pig Homogeneous Skin Passive Anaphylaxis Assay (PCA Reaction Assay; Passive Cutaneous Anaphylaxis Reaction Assay) was carried out. The assay method used will be explained in the following.
Assay method: Hartley-type male guinea pigs (body weight: 250~300 g) were sensitized by the following procedure; a mixture of 2 μg of egg albumin (OVA) and 5 μg of aluminium hydroxide gel was administered intraperitoneally 3 times every 2 weeks, and the anti-OVA blood serum was manufactured.
The anti-blood serum obtained was then diluted 120 times using physiological saline solution, and then to groups each containing 6 shaved guinea pigs, was injected at a quantity of 0.05 ml respectively, into two positions in the back portion, inside the skin of each animal.
After the 48th hour of sensitization, 10 mg/kg of the test substance to be tested was orally administered, following which a mixture of 2 mg OVA and 5 mg of Evans Blue was administered by intraveneous injection into the hind leg, triggering the anaphylaxis reaction. As the positive control, Tranilast, a well known anti-allergic agent, was used, and in the same manner as the substances to be tested, 100 mg/kg of it was orally administered after the 48th hour of sensitization.
30 minutes after triggering the reaction, the animals were bled to death under ether anesthesia, and their back portion skins were peeled off. The long and short diameters of pigment leakage spots on the interior surface of the skins were measured, and the product of these (mm^2) were entered into formula 1 as "pigment leakage amount", from which the allergic reaction inhibitory index wins calculated. [formula]
I: Allergic reaction inhibitory index (%)
A: Pigment leakage amount of solvent control group
B: Pigment leakage amount of test substance group
C: Pigment leakage amount of […]

With `CC(C)=CCC/C(C)=C/COc1ccc2c(OC/C=C(\C)CCC=C(C)C)c(O)c(=O)oc2c1` [Compound 84, 3-hydroxy-4,7-(digeranyloxy)-2H-1-benzopyran-2-one], the inhibition in vivo at 10 mg/kg was determined as 30%. The same measure, in the same setting: the same measure for `CC(=O)Oc1c(OC/C=C(\C)CCC=C(C)C)c(=O)oc2cc(OC/C=C(\C)CCC=C(C)C)ccc12` [Compound 85, 3,7-(digeranyloxy)-4-(acetoxy)-2H-1-benzopyran-2-one]: 33%; for `CC(C)=CCC/C(C)=C/COc1ccc2c(OC/C=C(\C)CCC=C(C)C)c(OC(=O)c3ccccc3)c(=O)oc2c1` [Compound 86, 3-(benzoyloxy)-4,7-(digeranyloxy)-2H-1-benzopyran-2-one]: 30%. In the case of `COc1c(OC/C=C(\C)CCC=C(C)C)c(=O)oc2cc(OC/C=C(\C)CCC=C(C)C)ccc12` [Compound 87, 3,7-(digeranyloxy)-4-(methoxy)-2H-1-benzopyran-2-one], the inhibition in vivo at 10 mg/kg amounted to 31%. The same measure, in the same setting: the same measure for `CC(C)=CCC/C(C)=C/COc1ccc2c(OC/C=C(\C)CCC=C(C)C)c(OC(C)C)c(=O)oc2c1` [Compound 88, 3-(isopropoxy)-4,7-(digeranyloxy)-2H-1-benzopyran-2-one]: 30%.

For the compound `O=C(Oc1c(O)c2cccc(O)c2oc1=O)c1ccccc1` [Compound 92, 3-(benzoyloxy)-4,8-dihydroxy-2H-1-benzopyran-2-one], the inhibition in vivo at 10 mg/kg worked out at 33%. Still for that read-out and setting: the value for `O=c1oc2c(O)cccc2c(O)c1O` [Compound 93, 3,4,8-trihydroxy-2H-1-benzopyran-2-one] was 42%; that for `CC(=O)Oc1c(O)c(=O)oc2c(O)cccc12` [Compound 94, 3,8-(dihydroxy)-4-(acetoxy)-2H-1-benzopyran-2-one] was 36%; that for `CC(=O)Oc1c(OC(C)=O)c2cccc(OC(C)=O)c2oc1=O` [Compound 95, 3,4,8-(triacetoxy)-2H-1-benzopyran-2-one] was 30%. Still for that read-out and setting: the same measure for `CC(=O)Oc1c(OC(=O)c2ccccc2)c2cccc(O)c2oc1=O` [Compound 96, 3-(acetoxy)-4-(benzoyloxy)-8-hydroxy-2H-1-benzopyran-2-one]: 32%; for `CCCCCCCCCCOc1c(O)c2cccc(O)c2oc1=O` [Compound 97, 3-(decyloxy)-4,8-(dihydroxy)-2H-1-benzopyran-2-one]: 34%; for `CC(=O)Oc1c(OC(C)C)c2cccc(O)c2oc1=O` [Compound 100, 3-(acetoxy)-4-(isopropoxy)-8-hydroxy-2H-1-benzopyran-2-one]: 30%. Still for that read-out and setting: the same measure for `COc1c(OC(C)=O)c2cccc(O)c2oc1=O` [Compound 101, 3-(methoxy)-4-(acetoxy)-8-hydroxy-2H-1-benzopyran-2-one]: 30%; for `CC(C)=CCC/C(C)=C/COc1c(O)c2cccc(O)c2oc1=O` [Compound 102, 3-(geranyloxy)-4,8-(dihydroxy)-2H-1-benzopyran-2-one]: 35%; for `CC(C)=CCC/C(C)=C/COc1c(O)c(=O)oc2c(O)cccc12` [Compound 103, 3,8-(dihydroxy)-4-(geranyloxy)-2H-1-benzopyran-2-one]: 30%. Consider `CC(=O)Oc1c(OC/C=C(\C)CCC=C(C)C)c(=O)oc2c(O)cccc12` [Compound 104, 3-(geranyloxy)-4-(acetoxy)-8-hydroxy-2H-1-benzopyran-2-one], for which the inhibition in vivo at 10 mg/kg stood at 32%.

With `CC(=O)Oc1c(OC/C=C(\C)CCC=C(C)C)c(=O)oc2c(OC(C)=O)cccc12` [Compound 105, 3-(geranyloxy)-4,8-(diacetoxy)-2H-1-benzopyran-2-one], the inhibition in vivo at 10 mg/kg came to 30%. Same read-out and setting: the value for `CC(C)=CCC/C(C)=C/COc1c(OC(=O)c2ccccc2)c(=O)oc2c(O)cccc12` [Compound 106, 3-(benzoyloxy)-4-(geranyloxy)-8-hydroxy-2H-1-benzopyran-2-one] was 31%. Same read-out and setting: the same measure for `COc1c(OC/C=C(\C)CCC=C(C)C)c(=O)oc2c(O)cccc12` [Compound 107, 3-(geranyloxy)-4-(methoxy)-8-hydroxy-2H-1-benzopyran-2-one]: 33%; for `CC(C)=CCC/C(C)=C/COc1c(OC(C)C)c(=O)oc2c(O)cccc12` [Compound 108, 3-(isopropoxy)-4-(geranyloxy)-8-hydroxy-2H-1-benzopyran-2-one]: 32%; for `CC(C)=CCC/C(C)=C/COc1c(OC/C=C(\C)CCC=C(C)C)c2cccc(O)c2oc1=O` [Compound 109, 3,4-(digeranyloxy)-8-hydroxy-2H-1-benzopyran-2-one]: 34%. Consider `COc1cccc2c(O)c(OC(=O)c3ccccc3)c(=O)oc12` [Compound 110, 3-(benzoyloxy)-4-hydroxy-8-(methoxy)-2H-1-benzopyran-2-one], for which the inhibition in vivo at 10 mg/kg was 31%.

For the compound `COc1cccc2c(O)c(O)c(=O)oc12` [Compound 111, 3,4-(dihydroxy)-8-(methoxy)-2H-1-benzopyran-2-one], the inhibition in vivo at 10 mg/kg was 38%.

Regarding `COc1cccc2c(OC(C)=O)c(O)c(=O)oc12` [Compound 112, 3-hydroxy-4-(acetoxy)-8-(methoxy)-2H-1-benzopyran-2-one], the inhibition in vivo at 10 mg/kg came to 32%. In the case of `COc1cccc2c(OC(C)=O)c(OC(C)=O)c(=O)oc12` [Compound 113, 3,4-(diacetoxy)-8-(methoxy)-2H-1-benzopyran-2-one], the “Allergic reaction inhibitory index (%)” value is 30%.

For `COc1cccc2c(OC(=O)c3ccccc3)c(OC(C)=O)c(=O)oc12` [Compound 114, 3-(acetoxy)-4-(benzoyloxy)-8-(methoxy)-2H-1-benzopyran-2-one], the inhibition in vivo at 10 mg/kg came to 31%. As for `COc1c(O)c2cccc(OC)c2oc1=O` [Compound 115, 3,8-(dimethoxy)-4-hydroxy-2H-1-benzopyran-2-one], the inhibition in vivo at 10 mg/kg was 33%. The same measure, in the same setting: the same measure for `COc1cccc2c(OC(C)C)c(O)c(=O)oc12` [Compound 116, 3-hydroxy-4-(isopropoxy)-8-(methoxy).2H-1-benzopyran-2-one]: 34%; for `CCCCCCCCCCOc1c(OC)c2cccc(OC)c2oc1=O` [Compound 117, 3-(decyloxy)-4,8-(dimethoxy)-2H-1-benzopyran-2-one]: 32%. Still for that read-out and setting: the same measure for `CCCCCCCCCCOc1c(OC(C)=O)c(=O)oc2c(OC)cccc12` [Compound 118, 3-(acetoxy)-4-(decyloxy)-8-(methoxy)-2H-1-benzopyran-2-one]: 32%. For `COc1cccc2c(OC(=O)c3ccccc3)c(OC(C)C)c(=O)oc12` [Compound 119, 3-(isopropoxy)-4-(benzoyloxy)-8-(methoxy)-2H-1-benzopyran-2-one], the inhibition in vivo at 10 mg/kg amounted to 30%. Consider `COc1cccc2c(O)c(OC/C=C(\C)CCC=C(C)C)c(=O)oc12` [Compound 120, 3-(geranyloxy)-4-hydroxy-8-(methoxy)-2H-1-benzopyran-2-one], for which the inhibition in vivo at 10 mg/kg was 33%. Turning to `COc1cccc2c(OC/C=C(\C)CCC=C(C)C)c(O)c(=O)oc12` [Compound 121, 3-hydroxy-4-(geranyloxy)-8-(methoxy)-2H-1-benzopyran-2-one], the inhibition in vivo at 10 mg/kg amounted to 30%.

Source of the values: patent US5428059A, “Benzopyran derivatives and an anti-allergic agent possessing the same as the active ingredient” (Dainippon Ink & Chemicals, Inc., priority 1991, dated 1995).
